According to ChEMBL document CHEMBL1201862, “PubChem BioAssay data set” (2004):
Values joined by “and” are separate entries in the source; they are usually repeats but may differ in a detail not shown here. Equal entries are not always repeated. Active and inactive are the calls of the source.

Experiments:
Hexokinase-1 [1] = biological target: T1, Hexokinase-1 (Homo sapiens, UniProt P19367); assay: hexokinase 1 activity inhibitors, potency – biochemical, set 2, resazurin fluorescence coupled readout, selectivity assay for HKDC1 inhibitor project, SAR follow-up (AID 588356); type: functional
T1 sequence (P19367 whole entry): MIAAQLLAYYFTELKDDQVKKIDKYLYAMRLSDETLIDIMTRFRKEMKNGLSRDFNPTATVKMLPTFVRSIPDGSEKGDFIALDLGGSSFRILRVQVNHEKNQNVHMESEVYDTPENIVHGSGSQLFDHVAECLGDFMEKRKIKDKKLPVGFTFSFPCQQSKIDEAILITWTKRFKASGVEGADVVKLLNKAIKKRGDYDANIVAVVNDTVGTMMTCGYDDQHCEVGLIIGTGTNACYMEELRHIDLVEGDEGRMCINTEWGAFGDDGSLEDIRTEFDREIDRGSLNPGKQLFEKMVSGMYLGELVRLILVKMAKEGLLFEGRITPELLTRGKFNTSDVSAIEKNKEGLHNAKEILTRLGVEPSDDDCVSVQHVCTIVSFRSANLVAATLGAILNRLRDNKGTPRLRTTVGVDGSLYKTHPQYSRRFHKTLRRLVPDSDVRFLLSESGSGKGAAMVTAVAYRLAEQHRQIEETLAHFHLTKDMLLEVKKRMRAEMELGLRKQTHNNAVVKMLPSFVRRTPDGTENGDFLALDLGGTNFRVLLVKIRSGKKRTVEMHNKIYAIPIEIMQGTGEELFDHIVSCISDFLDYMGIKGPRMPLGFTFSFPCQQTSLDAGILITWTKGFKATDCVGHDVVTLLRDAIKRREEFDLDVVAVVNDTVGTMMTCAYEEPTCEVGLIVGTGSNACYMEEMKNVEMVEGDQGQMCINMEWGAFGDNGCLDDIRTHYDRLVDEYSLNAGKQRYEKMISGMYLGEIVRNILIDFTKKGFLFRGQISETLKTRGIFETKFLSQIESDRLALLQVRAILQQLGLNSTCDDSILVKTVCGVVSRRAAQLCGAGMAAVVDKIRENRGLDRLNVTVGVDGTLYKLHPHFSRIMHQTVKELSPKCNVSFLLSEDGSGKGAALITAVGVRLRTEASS

Hexokinase HKDC1 [2] = biological target: T2, Hexokinase HKDC1 (Homo sapiens, UniProt Q2TB90); assay: SAR analysis of small molecule inhibitors of hexokinase domain containing I (HKDC1) - Set 3. [Related pubchem assays (depositor defined):AID493160, AID493190]; type: functional
T2 sequence (Q2TB90 whole entry): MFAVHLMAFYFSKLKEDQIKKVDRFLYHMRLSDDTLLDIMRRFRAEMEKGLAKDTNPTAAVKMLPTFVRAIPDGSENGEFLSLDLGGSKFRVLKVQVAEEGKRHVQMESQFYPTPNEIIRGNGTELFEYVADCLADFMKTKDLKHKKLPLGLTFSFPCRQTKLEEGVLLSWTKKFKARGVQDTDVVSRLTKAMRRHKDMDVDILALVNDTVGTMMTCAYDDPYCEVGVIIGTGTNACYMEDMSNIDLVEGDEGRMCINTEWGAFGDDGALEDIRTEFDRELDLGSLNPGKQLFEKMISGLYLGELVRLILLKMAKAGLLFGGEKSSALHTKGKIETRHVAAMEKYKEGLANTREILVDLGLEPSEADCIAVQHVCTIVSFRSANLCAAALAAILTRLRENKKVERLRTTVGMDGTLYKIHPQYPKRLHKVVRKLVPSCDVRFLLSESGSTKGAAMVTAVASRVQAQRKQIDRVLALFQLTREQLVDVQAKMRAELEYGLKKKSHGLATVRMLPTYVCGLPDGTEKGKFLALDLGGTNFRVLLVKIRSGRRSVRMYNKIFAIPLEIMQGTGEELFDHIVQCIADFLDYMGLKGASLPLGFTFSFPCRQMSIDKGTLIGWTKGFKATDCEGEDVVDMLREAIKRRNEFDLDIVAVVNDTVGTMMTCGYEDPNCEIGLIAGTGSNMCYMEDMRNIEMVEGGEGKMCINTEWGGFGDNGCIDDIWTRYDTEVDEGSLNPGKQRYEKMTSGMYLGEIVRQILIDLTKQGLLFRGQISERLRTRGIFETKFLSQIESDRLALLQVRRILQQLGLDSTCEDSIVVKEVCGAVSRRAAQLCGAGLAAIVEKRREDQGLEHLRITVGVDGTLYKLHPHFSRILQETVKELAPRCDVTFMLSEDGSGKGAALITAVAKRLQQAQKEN

Hexokinase HKDC1 [3] = biological target: T2, Hexokinase HKDC1; assay: inhibition of HKDC1 glucose phosphorylation – biochemical, W721R variant, dose response (AID 504729); type: functional
Hexokinase HKDC1 [4] = biological target: T2, Hexokinase HKDC1; assay: SAR analysis of small molecule inhibitors of hexokinase domain containing I (HKDC1). [Related pubchem assays (depositor defined):AID493160, AID493190]; type: functional
[5] = biological target: Eukaryotic translation initiation factor 4E (Mus musculus, UniProt P63073); assay: blockers of eIF4G binding by eIF4E – biochemical, TR-FRET, dose response (AID 855); type: functional;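 also: potency for disrupting eIF4E binding to eIF4GI seen as loss of FRET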
Hexokinase-1 [6] = biological target: T1, Hexokinase-1; assay: SAR analysis of small molecule inhibitors of hexokinase domain containing I (HKDC1) in the hexokinase 1 selectivity assay. [Related pubchem assays (depositor defined):AID493160, AID493190]; type: functional
[7] = biological target: RNA-editing ligase 1, mitochondrial (Trypanosoma brucei brucei, UniProt P86926); assay: inhibition of trypanosome RNA editing ligase – biochemical, fluorescence, Trypanosoma brucei, dose response (AID 1117295); type: functional
Cytochrome P450 1A2 = biological target: T3, Cytochrome P450 1A2 (Homo sapiens, UniProt P05177);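 also: PubChem cytochrome P450 panel assay, CYP1A2 panel member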
T3 sequence (P05177 whole entry): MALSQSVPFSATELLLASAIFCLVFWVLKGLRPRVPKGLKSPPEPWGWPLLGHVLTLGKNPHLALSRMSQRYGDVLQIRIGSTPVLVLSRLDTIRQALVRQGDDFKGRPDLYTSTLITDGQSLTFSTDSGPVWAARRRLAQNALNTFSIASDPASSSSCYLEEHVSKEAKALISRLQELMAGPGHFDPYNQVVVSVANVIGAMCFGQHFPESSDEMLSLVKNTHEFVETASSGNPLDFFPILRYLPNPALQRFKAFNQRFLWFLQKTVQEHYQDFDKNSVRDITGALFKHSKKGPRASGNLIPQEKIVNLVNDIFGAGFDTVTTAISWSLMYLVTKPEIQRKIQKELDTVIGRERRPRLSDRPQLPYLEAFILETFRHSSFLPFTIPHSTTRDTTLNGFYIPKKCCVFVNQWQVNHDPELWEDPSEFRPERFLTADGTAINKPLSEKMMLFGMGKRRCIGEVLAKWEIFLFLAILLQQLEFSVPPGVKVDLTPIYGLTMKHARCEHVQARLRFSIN

Cytochrome P450 2C9 = Cytochrome P450 2C9 (Homo sapiens, UniProt P11712)
Hexokinase HKDC1 [8] = biological target: T2, Hexokinase HKDC1; assay: analog inhibition of human HKDC1 activity – biochemical, set 2, SAR follow-up (AID 588355); type: functional
[9] = biological target: Platelet-activating factor acetylhydrolase (Mus musculus, UniProt Q60963); assay: Late stage assay provider results from the probe development effort to identify inhibitors of plasma platelet activating factor acetylhydrolase (pPAFAH): fluorescence-based dose response biochemical gel-based competitive Activity-Based Protein Profiling (ABPP) assay for HTS compounds. [Related pubchem assays (depositor defined):AID463082, AID463092, AID463230, AID588474]; type: cell-free
[10] = (§1) Counterscreen for antagonists of the orexin 1 receptor (OX1R; HCRTR1): Fluorescence-based cell-based high throughput dose response assay to identify antagonists of the parental CHO cell line. [Related pubchem assays (depositor defined):AID434989, AID435008, AID463079, AID485270, AID492963, AID492964, AID492965, AID493232, AID504699, AID504701]; type: functional
Orexin receptor type 2 [11] = biological target: T4, Orexin receptor type 2 (Homo sapiens, UniProt O43614); assay: Counterscreen assay for antagonists of the orexin 1 receptor (OX1R; HCRTR1): Fluorescence-based cell-based dose response assay for antagonists of the orexin 2 receptor (OX2R; HCRTR2), run by assay provider.; type: functional
CHO-K1 = assay: as §1, with “Homogeneous time resolved fluorescence (HTRF)-based” for “Fluorescence-based”, “cell-based” for “cell-based high throughput”, “CHO-K1” for “CHO”; type: functional; conditions: Cricetulus griseus;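 also: potency for inhibition of ATP-stimulated IP1 production as antagonists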
Orexin receptor type 2 [12] = biological target: T4, Orexin receptor type 2; assay: Counterscreen assay for antagonists of the orexin 1 receptor (OX1R; HCRTR1): Homogeneous Time Resolved Fluorescence (HTRF)-based cell-based dose response assay for antagonists of the orexin 2 receptor (OX2R; HCRTR2), run by assay provider.; type: functional
[13] = biological target: T5, Orexin/Hypocretin receptor type 1 (Homo sapiens, UniProt O43613); assay: Homogeneous Time Resolved Fluorescence (HTRF)-based cell-based high throughput dose response assay for antagonists of the orexin 1 receptor (OX1R; HCRTR1). [Related pubchem assays (depositor defined):AID434989, AID435008, AID463079, AID485270, AID492963, AID492964, AID492965, AID493232, AID504717, AID504718]; type: functional
T5 sequence (O43613 whole entry): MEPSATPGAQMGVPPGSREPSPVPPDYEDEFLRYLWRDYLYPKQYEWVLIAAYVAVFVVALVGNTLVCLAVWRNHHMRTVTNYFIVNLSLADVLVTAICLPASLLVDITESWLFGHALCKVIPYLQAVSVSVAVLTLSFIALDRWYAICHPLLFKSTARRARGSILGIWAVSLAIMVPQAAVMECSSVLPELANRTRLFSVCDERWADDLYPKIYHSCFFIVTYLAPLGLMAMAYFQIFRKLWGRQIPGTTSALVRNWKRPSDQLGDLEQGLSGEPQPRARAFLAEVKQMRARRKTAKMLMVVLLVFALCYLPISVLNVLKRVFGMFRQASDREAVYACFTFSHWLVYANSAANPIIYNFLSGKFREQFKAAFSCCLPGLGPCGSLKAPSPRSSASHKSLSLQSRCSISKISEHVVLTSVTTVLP

[14] = biological target: T5, Orexin/Hypocretin receptor type 1; assay: Fluorescence-based cell-based high throughput dose response assay for antagonists of the orexin 1 receptor (OX1R; HCRTR1). [Related pubchem assays (depositor defined):AID434989, AID435008, AID463079, AID485270, AID492963, AID492964, AID492965, AID493232, AID504717, AID504718]; type: functional
[15] = biological target: Cystic fibrosis transmembrane conductance regulator/Golgi-associated PDZ and coiled-coil motif-containing protein (Homo sapiens, UniProt P13569+Q9HD26); assay: disruption of CAL PDZ–reporter peptide interaction – biochemical, fluorescence polarization, Cer-tagged CAL PDZ, dry powder, dose response (AID 602253); type: functional
[16] = disruptors of CAL PDZ reporter peptide binding – biochemical, fluorescence polarization, untagged CAL PDZ, dry powder, dose response (AID 602255); type: functional
[17] = biological target: Casein kinase I isoform delta (Homo sapiens, UniProt P48730); type: functional;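 also: measured as one member (CSNK1D) of a kinome panel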
[18] = biological target: Eukaryotic elongation factor 2 kinase (Homo sapiens, UniProt O00418); type: functional
[19] = biological target: DNA dC->dU-editing enzyme APOBEC-3G (Homo sapiens, UniProt Q9HC16); assay: inhibition of APOBEC3G ssDNA deamination – biochemical, fluorescence, single-stranded DNA substrate, SAR follow-up (AID 602136); type: functional; conditions: read-out: IC50_Mean
[20] = biological target: DNA dC->dU-editing enzyme APOBEC-3A (Homo sapiens, UniProt P31941); assay: SAR analysis of small molecule inhibitors of APOBEC3A DNA Deaminase via a fluorescence-based single-stranded DNA deaminase assay.; type: functional; conditions: read-out: IC50_Mean
[21] = biological target: Mitogen-activated protein kinase kinase kinase kinase 4 (Homo sapiens, UniProt O95819); type: functional
[22] = biological target: Serine/threonine-protein kinase pim-1 (Homo sapiens, UniProt P11309); type: functional
Chain of Serine/threonine-protein kinase pim-1 (P11309 whole entry): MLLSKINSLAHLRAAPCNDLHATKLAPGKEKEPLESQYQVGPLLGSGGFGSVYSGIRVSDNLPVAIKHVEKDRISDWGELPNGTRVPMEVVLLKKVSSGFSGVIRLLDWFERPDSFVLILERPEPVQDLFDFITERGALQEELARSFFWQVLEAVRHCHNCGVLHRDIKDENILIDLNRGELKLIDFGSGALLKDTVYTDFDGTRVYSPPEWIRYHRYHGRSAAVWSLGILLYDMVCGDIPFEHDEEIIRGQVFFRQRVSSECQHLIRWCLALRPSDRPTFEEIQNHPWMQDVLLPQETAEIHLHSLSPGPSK

T4 sequence (O43614 whole entry): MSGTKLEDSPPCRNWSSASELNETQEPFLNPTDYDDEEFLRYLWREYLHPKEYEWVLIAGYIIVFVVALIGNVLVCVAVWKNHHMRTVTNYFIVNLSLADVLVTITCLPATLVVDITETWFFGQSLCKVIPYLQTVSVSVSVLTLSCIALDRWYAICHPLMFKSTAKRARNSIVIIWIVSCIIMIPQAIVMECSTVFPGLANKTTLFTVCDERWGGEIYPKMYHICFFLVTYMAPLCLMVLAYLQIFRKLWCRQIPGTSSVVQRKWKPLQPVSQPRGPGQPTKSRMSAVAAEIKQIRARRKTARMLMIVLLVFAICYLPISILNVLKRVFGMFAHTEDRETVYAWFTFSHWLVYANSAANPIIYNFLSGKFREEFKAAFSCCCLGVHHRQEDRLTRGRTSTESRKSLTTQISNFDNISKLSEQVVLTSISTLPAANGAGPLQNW
Chain of Eukaryotic elongation factor 2 kinase (O00418 whole entry): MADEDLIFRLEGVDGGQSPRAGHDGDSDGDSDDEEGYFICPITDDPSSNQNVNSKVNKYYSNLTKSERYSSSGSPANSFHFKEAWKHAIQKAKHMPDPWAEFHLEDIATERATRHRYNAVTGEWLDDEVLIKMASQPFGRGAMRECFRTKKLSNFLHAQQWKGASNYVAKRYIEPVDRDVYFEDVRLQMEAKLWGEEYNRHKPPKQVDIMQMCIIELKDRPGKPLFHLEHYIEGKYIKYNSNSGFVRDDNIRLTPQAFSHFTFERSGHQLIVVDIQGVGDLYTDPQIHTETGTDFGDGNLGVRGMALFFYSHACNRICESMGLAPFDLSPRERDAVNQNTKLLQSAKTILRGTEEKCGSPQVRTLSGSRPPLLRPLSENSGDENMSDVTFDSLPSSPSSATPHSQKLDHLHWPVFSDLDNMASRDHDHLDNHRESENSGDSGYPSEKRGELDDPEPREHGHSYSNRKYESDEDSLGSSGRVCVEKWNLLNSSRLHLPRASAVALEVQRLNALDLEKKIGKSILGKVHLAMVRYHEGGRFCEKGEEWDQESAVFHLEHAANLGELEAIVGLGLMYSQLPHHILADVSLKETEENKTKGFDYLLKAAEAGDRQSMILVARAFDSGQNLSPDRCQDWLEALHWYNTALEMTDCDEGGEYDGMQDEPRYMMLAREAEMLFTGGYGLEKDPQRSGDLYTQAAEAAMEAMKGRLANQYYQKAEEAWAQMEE
Chain of DNA dC->dU-editing enzyme APOBEC-3A (P31941 whole entry): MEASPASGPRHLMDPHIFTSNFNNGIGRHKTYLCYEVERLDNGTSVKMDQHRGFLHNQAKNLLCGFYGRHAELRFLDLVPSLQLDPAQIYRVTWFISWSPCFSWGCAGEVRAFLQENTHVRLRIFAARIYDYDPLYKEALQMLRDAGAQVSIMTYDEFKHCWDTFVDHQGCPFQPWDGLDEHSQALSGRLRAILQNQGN
Chain of Cystic fibrosis transmembrane conductance regulator/Golgi-associated PDZ and coiled-coil motif-containing protein (P13569 whole entry, other chains not shown): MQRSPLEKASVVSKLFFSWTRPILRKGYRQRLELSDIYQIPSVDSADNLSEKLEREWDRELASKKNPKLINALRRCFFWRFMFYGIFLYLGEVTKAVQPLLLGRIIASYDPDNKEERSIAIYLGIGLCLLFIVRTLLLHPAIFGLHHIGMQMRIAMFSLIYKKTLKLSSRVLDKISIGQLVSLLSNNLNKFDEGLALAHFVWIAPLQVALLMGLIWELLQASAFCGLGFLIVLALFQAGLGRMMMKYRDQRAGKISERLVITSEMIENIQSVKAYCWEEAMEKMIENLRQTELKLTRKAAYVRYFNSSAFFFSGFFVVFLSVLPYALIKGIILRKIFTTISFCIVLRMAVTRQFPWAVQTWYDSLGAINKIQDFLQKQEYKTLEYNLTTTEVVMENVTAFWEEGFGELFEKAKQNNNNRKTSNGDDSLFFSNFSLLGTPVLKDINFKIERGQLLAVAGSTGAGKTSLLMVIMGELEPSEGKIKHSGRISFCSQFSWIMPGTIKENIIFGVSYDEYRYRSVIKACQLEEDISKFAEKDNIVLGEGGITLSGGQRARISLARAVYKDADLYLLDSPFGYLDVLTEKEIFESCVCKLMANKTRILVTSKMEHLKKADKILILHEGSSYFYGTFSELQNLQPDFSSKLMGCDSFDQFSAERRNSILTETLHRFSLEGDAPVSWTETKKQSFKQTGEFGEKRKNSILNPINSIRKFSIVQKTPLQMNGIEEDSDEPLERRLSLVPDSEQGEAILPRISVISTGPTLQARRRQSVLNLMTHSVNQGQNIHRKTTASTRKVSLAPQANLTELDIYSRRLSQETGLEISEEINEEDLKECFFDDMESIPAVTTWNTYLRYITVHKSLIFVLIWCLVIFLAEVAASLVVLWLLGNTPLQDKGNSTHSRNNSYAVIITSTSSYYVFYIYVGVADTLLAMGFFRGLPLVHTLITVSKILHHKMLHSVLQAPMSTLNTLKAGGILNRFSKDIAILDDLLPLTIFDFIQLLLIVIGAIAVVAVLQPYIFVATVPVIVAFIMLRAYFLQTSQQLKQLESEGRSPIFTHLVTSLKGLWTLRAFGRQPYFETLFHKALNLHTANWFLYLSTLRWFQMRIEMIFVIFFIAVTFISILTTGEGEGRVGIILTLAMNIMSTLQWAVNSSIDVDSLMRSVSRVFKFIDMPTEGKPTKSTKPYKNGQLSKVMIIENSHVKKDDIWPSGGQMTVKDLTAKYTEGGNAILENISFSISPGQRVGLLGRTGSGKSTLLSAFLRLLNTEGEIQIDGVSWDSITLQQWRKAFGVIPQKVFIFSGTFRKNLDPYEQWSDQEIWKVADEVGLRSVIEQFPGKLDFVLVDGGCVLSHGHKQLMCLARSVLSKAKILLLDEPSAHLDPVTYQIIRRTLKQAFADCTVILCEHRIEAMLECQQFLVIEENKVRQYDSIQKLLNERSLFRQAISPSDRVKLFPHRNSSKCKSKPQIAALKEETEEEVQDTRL
Chain of Platelet-activating factor acetylhydrolase (Q60963 whole entry): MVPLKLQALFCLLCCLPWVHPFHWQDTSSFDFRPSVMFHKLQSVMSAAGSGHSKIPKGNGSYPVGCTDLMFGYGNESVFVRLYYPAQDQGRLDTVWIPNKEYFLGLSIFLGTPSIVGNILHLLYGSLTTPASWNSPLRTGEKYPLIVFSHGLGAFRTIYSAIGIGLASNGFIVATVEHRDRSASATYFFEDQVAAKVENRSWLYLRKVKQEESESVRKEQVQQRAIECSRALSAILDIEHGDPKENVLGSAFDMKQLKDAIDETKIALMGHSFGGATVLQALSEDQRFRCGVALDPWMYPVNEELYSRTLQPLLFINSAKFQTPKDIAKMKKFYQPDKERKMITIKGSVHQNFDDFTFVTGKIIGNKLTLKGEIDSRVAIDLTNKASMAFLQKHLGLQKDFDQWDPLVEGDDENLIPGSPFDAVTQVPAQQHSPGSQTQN
Chain of Mitogen-activated protein kinase kinase kinase kinase 4 (O95819 whole entry): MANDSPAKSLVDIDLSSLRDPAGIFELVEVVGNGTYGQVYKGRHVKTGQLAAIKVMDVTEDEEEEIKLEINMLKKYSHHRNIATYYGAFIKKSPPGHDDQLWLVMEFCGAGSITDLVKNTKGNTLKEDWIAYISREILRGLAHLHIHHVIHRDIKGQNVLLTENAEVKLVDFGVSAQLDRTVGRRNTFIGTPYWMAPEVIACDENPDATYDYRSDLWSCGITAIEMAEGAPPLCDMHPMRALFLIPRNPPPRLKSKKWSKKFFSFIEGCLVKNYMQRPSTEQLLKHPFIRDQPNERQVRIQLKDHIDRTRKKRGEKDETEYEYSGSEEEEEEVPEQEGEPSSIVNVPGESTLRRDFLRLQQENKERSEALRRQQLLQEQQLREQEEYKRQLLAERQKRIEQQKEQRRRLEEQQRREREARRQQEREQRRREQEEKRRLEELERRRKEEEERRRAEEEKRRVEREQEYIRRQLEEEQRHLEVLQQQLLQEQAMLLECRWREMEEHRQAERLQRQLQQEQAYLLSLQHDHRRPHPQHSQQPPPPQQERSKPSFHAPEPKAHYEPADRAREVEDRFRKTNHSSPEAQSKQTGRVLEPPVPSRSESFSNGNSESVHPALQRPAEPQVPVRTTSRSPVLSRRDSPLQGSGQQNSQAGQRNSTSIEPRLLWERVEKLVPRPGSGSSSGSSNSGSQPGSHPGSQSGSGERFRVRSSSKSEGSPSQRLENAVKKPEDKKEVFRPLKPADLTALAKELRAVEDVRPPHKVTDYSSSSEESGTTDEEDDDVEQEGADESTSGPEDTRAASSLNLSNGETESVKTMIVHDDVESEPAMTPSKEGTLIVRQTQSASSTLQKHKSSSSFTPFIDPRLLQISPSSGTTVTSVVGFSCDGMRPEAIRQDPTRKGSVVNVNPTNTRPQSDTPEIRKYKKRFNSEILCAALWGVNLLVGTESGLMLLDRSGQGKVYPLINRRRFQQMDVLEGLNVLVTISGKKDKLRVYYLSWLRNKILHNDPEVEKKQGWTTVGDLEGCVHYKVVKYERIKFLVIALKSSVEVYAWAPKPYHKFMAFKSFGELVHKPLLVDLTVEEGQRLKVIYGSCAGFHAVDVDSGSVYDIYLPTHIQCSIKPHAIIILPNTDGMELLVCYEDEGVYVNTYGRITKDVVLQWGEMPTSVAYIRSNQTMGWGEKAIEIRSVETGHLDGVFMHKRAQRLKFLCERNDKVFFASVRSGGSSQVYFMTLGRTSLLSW

COc1cc2c(cc1OC)-c1cc(NCc3ccccn3)nc(=O)n1CC2
IC50 (Hexokinase-1 [1]): > 80 µM (inactive)
IC50 (Hexokinase HKDC1 [2]): > 80 µM (inactive) and 12.1 µM (active)
IC50 (Hexokinase HKDC1 [3]): 8.47 µM (active)
IC50 (Hexokinase HKDC1 [4]): 12.4 µM (active)
IC50 [5]: 9.21 µM (active)
IC50 (Hexokinase-1 [6]): > 80 µM (inactive)
IC50 [7]: 14.7 µM (inactive)
AC50 (Cytochrome P450 1A2): 35.5 µM (inconclusive)
AC50 (Cytochrome P450 2C9): 7.94 µM (inconclusive)
IC50 (Hexokinase HKDC1 [8]): > 80 µM (inactive) and 11.7 µM (active)

O=C(Oc1ccc(-c2ccccc2)cc1)N1CCOCC1
IC50 [9]: 0.469 µM (active)

Cc1cccc(OCCSc2nc3ccccc3n2CCC(=O)O)c1
IC50 [10]: > 49.8 µM (inactive)
IC50 (Orexin receptor type 2 [11]): 88.2 µM (inactive)
IC50 (CHO-K1): > 66.2 µM (inactive)
IC50 (Orexin receptor type 2 [12]): > 50 µM (inactive)
IC50 [13]: 1.57 µM (active)
IC50 [14]: 19.6 µM (inactive)

CCc1ccc(S(=O)(=O)/N=C2\C=C(SC3=NCN=N3)C(=O)c3ccccc32)cc1
AC50 [15]: 41.5 µM (active)
AC50 [16]: 44.5 µM (active)

CNC1CC2OC(C)(C1OC)n1c3ccccc3c3c4c(c5c6ccccc6n2c5c31)C(=O)NC4 (stereo not given)
Ki [17]: > 2.51 µM (inactive)
Ki [18]: > 1 µM (inactive)

Cc1nnc(NC(=O)C2(c3ccc(F)cc3)CCC2)s1
IC50 [19]: > 99 µM (inactive)
IC50 [20]: > 99 µM (inactive)

Clc1ccc(OCC2CN(Cc3c[nH]c4ncccc34)CCO2)cc1 (stereo not given)
Ki [21]: 1.26 µM (active)
Ki [22]: 2 µM (active)
